From patent EP2891500B1, “Contrast agent for determination of aldehyde dehydrogenase (ALDH) activity” (Cambridge Enterprise Limited, priority 2014, dated 2015)
Several values for one entry are separate records, joined by “and”; a condition that tells them apart may be missing. Equal values may be shown once.

How the values were obtained:
[1] = 13C T1 measurements in vitro (inversion recovery, 11 T); type: physicochemical; conditions: PBS buffer, pH 7.5, containing 4% BSA, n=2
Method: ^13C T1 measurements in vitro: Measurements were made at 11 T (Bruker Avance II^+ 500 MHz spectrometer) using an inversion recovery sequence in samples containing approximately 10 mM [1-^13C] ethanol or 1 M ethanol, 10% D2O and 4% BSA (Sigma Aldrich), buffered with PBS to pH 7.5. A TR of 300 seconds and 16 delays between 1 and 200 seconds were used for measurements with [1-^13C, U-^2H5] ethanol and a TR of 50 seconds and 16 delays between 0.5 and 50 seconds were used for measurements of the natural abundance ^13C signal from 1M ethanol.

[2] = Hyperpolarisation by dynamic nuclear polarization and liquid state polarization measurement; type: physicochemical
Method: A 2:3 glycerol: [1-^13C] ethanol mixture, containing 15 mM trityl radical (OX063: tris (8-carboxy-2,2,6,6-tetra-(hydroxyethyl)-benzo-[1,2-4,50]-bis-(1,3)-dithiole-4-yl)-methyl, sodium salt; GE Healthcare, Little Chalfont, UK) and 1.5 mM gadoteric acid (DOTAREM; Guebert, Roissy, France), was polarized for approximately 120 minutes in a 3.35 T Hypersense polarizer (Oxford Instruments, Abingdon, Oxfordshire, UK) using irradiation at 94.124 GHz. The dissolution buffer (PBS, pH 7.5, 100 mg/L EDTA) was heated to 180°C and pressurized to 10 bar before dissolving the frozen polarized samples. The dissolved sample contained 110 mM [1-^13C] ethanol. For measurements of the liquid state polarization a sample of [1-^13C] ethanol was polarized and dissolved as described above. Two mL of the sample, containing approximately 60 mM [1-^13C] ethanol were injected into 2 mL of PBS buffer, pH 7.4 in a 10 mm NMR tube placed inside a vertical bore 9.4 T NMR spectrometer with a broadband probe tuned to ^13C (Varian NMR Instruments, Palo Alto, CA, U.S.). Immediately following injection and approximately 9 seconds after dissolution, 180 single transient spectra, with a nominal pulse flip angle of 6° and 8 kHz spectral width, were acquired with a TR of 1 second. Three 90° pulses were then applied to eliminate the remaining hyperpolarisation. A ^13C spectrum (the sum of 128 transients) was then acquired using a 6° pulse, a spectral width of 8 kHz, and a TR of 300 seconds. The temperature of the sample was kept at 37°C. The liquid state polarization was calculated from the ratio of the maximal integrated intensity of the hyperpolarised [1-^13C] ethanol signal to the integrated intensity of the thermal equilibrium signal corrected for the number of transients.

[3] = Measurement of blood ethanol level (13C MRS on plasma samples); type: in vivo, mice; conditions: for ethanol concentration in plasma: plasma withdrawn 75 seconds after start of i.v. injection of 10 µl per g body weight of 110 mM ethanol
Method: Measurement of blood ethanol level: An appropriate volume of [2-^13C] ethanol, polarized and dissolved to the same concentration as [1-^13C] ethanol, was injected into the tail vein of animals that had been anesthetized for 30-45 minutes. Blood was withdrawn by cardiac puncture, which began 75 seconds after the start of ethanol injection and was completed within 30 seconds. Individual blood samples were transferred into separate BD Microtainer FE micro-collection tubes (BD, Franklin Lakes, NJ, US), centrifuged at 800 g and the plasma removed and frozen in liquid nitrogen. For NMR spectroscopy, plasma samples were thawed and diluted in 200 mM PBS in D2O, pH 7.5. The buffer contained 100 mM TMSP (2,2,3,3-D4 sodium-3-trimethylsilylpropionate) as an intensity and chemical shift standard (Cambridge Isotope Laboratories, Inc. Andover MA, US). ^13C spectra (the sum of 1024 transients) were acquired under fully relaxed conditions at 125 MHz (Bruker Avance II^+ 500 MHz spectrometer) into 25,294 data points using a 90° pulse, a sweep width of 5 kHz, and a TR of 35 seconds. Integrated intensities of the 2-^13C ethanol and 2-^13C acetate resonances were normalized to that of TMSP and multiplied by the methyl ^13C concentration in 100 mM TMSP (3.33 mM) in order to convert to acetate or ethanol concentrations.

ALDH2 [4] = target: T1, ALDH2 (Mus musculus, UniProt P47738); assay: In vivo 13C MRS of acetate production from hyperpolarised [1-13C, U-2H5]ethanol in liver after disulfiram treatment; set-up: species or system mice; conditions: approximately 24 hours before MRS
T1 construct: animals were killed and their livers rapidly excised, freeze-clamped and stored at - 80°C before homogenization and enzyme assay; from tissue; host or cells: Triton X-100 extract of freeze-clamped mouse liver
T1 sequence (P47738 20-519): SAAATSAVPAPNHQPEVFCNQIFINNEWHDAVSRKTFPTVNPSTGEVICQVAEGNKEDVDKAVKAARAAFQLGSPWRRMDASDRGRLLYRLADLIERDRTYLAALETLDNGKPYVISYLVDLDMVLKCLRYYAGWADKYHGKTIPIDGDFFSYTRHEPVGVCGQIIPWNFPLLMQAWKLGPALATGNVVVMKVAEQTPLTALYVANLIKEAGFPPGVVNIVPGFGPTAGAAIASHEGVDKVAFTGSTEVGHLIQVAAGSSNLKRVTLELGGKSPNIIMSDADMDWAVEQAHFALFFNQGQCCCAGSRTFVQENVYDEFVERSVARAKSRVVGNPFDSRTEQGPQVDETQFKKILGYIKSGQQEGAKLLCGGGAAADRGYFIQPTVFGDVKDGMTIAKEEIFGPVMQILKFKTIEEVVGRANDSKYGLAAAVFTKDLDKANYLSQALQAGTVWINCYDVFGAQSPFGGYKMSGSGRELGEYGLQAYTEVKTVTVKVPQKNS
From the text: All animal experiments were approved by local ethical review committees and performed in accordance with the Animals (Scientific Procedures) Act of 1986. Female CD1 mice (6-8 weeks old) were used in all experiments. Animals were anaesthetized using 3 % isoflurane vapor (Isoflo, Abbotts Laboratories Ltd, Maidenhead, UK) in an oxygen/air mixture. Anesthesia was maintained during the MR experiments with 1-2 % isoflurane vapor in an oxygen/air mixture delivered via a face mask.
In vivo NMR spectroscopy: A catheter was inserted in a tail vein and the mouse placed in a heated cradle. Throughout the experiment animal breathing rate and core body temperature were monitored using a Biotrig physiological monitor (Small Animal Instruments, Stony Brook, NY), which were within the range of 60-100 bpm and 36-37°C, respectively. A 20 mm diameter surface coil (Rapid Biomedical GmbH, Rimpar, Germany) was placed over the liver and the entire assembly placed in a ^13C/^1H volume coil (Rapid Biomedicals, Germany), in a 7T horizontal bore magnet (Varian, Palo Alto, CA). Livers were localized in transverse ^1H images, acquired using a spin-echo pulse sequence (TR, 1.5 s; echo time (TE), 10 ms; field of view, 40 mm x 40 mm; data matrix, 128 x 128; slice thickness, 2 mm; 15 slices). […] All data were phase and baseline corrected and the signal integrals for ethanol and acetate measured. […]

ALDH2 [5] = target: T1, ALDH2; assay: ALDH2 activity assay in liver extracts of treated animals; type: biochemical, mice; conditions: 24 hours after 600 mg/kg body weight disulfiram, versus control animals
Method: Animals were given 100 mg/kg or 600 mg/kg body weight of disulfiram as a suspension in 5% w/v of gum arabicum, by oral gavage (Spielman, D.M., Mayer, D., Yen, Y.F., Tropp, J., Hurd, R.E., Pfefferbaum, A., "In vivo measurement of ethanol metabolism in the rat liver using magnetic resonance spectroscopy of hyperpolarised [1-13C]pyruvate.", Magn.Reson.Med. 2009; 62: 307-313). ^13C MRS experiments were performed approximately 24 hours after drug administration. In some experiments, shortly after completion of MRS measurements, animals were killed and their livers rapidly excised, freeze-clamped and stored at - 80°C before homogenization and enzyme assay.
Liver Tissue Extraction: Freeze-clamped livers were homogenized using a manual Potter S homogenizer (Sartorius, Epsom, UK) in 7 volumes (mL per gram wet weight of liver) of ice-cold extraction buffer (50 mM Tris-HCl, pH 7.4 containing 0.25 M sucrose, 0.1 % v/v 2-mercaptoethanol, 1 mM EDTA and protease inhibitor cocktail (Roche)). Ten strokes of 5 seconds (each followed by a 5 second pause) at 1000 r.p.m. were used. […]
ALDH2 activity assay: The assay mixture containing 0.5 mM NAD^+, 0.1 % v/v of 2-mercaptoethanol, 200 mM KCl in 100 mM sodium pyrophosphate buffer, pH 9.0. […] The formation of NADH was measured for 5 minutes after substrate addition as an increase in absorbance at 340 nm using a Tecan Sunrise 96 well plate reader. […]

SMILES: [2H]C([2H])([2H])[13C]([2H])([2H])O [[1-^13C, U-^2H5]ethanol]
- ^13C T1 [1]: 56 s
- polarization buildup time constant of dynamic nuclear polarization ([2]; 3.35 T Hypersense polarizer, n=3): 41.2 ± 5.5 min
- T1 calculated from the decay of the polarization ([2]; hyperpolarised sample in PBS, 9.4 T, 37°C, SD, n=3): 53.7 ± 3.2 s
- liquid state polarization ([2]; measured approximately 9 seconds after dissolution): 14.1 ± 3.3%

SMILES: [13CH3]CO [[2-^13C] ethanol]
- [1-^13C] acetate concentration in plasma ([3]; plasma withdrawn 75 seconds after start of ethanol injection, SD, n=3): 0.93 ± 0.29 mM
- ethanol concentration in plasma ([3]; SD, n=3): 1.73 ± 0.48 mM

SMILES: CCN(CC)C(=S)SSC(=S)N(CC)CC [disulfiram]
- decrease of the maximum acetate signal (normalized to the maximum ethanol signal) (ALDH2 [4]; disulfiram 100 mg/kg by oral gavage, n=1): approximately 43%
- decrease of the maximum acetate signal (normalized to the maximum ethanol signal) (ALDH2 [4]; disulfiram 600 mg/kg body weight by oral gavage, SD, n=3): 79 ± 8% and ~79%
- decrease of ALDH2 activity in liver extracts (ALDH2 [5]): 68%

SMILES: CCO [ethanol]
- ^13C T1 [1]: 9.9 s
- expected ethanol concentration at equilibrium ([3]; calculated for 10 µl per g body weight of 110 mM ethanol, assuming water is approximately 74% of body weight): approximately 1.5 mM
- ethanol concentration in plasma ([3]; SD, n=3): 1.73 mM
